From US10730875B2, “Substituted imidazo[1,2-A]pyridin-2-ylamine compounds, and pharmaceutical compositions and methods of use thereof” (JN Therapeutics, priority 2015, dated 2020)

Legend:
[1] = biological target: human Janus kinase 1 (JAK1), recombinant catalytic domain (Homo sapiens (Human), UniProt P23458); assay: LanthaScreen TR-FRET enzymatic assay, JAK1; format: biochemical; conditions: 1 mM ATP, GFP-STAT1 substrate, read-out: Inhibitory Activity IC50 JAK1
Method: (§1) The in vitro inhibition of recombinant human JAKs was determined as follow.
(§2) Compounds were tested in LANTHASCREEN™ time-resolved fluorescence energy transfer (TR-FRET) enzymatic assays from Invitrogen. The human Janus kinase 1 (JAK1) used in the assay is the recombinant JAK1 catalytic domain (amino acids 866-1154) expressed and purified from insect cells (Invitrogen, Cat. No. PV4774). The human Janus kinase 2 (JAK2) used in the assay is the recombinant JAK2 catalytic domain (amino acids 808-1132) expressed and purified from insect cells (Invitrogen, Cat. No. PV4210). The human Janus kinase 3 (JAK3) used in the assay is the recombinant JAK3 catalytic domain (amino acids 781-1124) expressed and purified from insect cells (Invitrogen, Cat. No. PV3855). The human tyrosine kinase 2 (TYK2) used in the assay is the recombinant TYK2 catalytic domain (amino acids 833-1187) expressed and purified from insect cells (Invitrogen, Cat. No. PV4790). The substrate is a recombinant STAT1 expressed as a fusion with GFP (Green Fluorescent Protein) to act as a physiological substrate (Invitrogen, Cat. No. PV5211).
(§3) Test compounds were prepared and diluted in DMSO in 3-fold serial dilutions for 10 doses to 100× of the final testing concentrations. The compounds were then further diluted to 4× by the kinase reaction buffer (Invitrogen, Cat. No. PV3189). The enzymatic reaction for compound testing was performed in a white 384-well polypropylene plate (Packard, Cat. No. 6005214) with a total reaction volume of 10 μL containing 440 ng/mL JAK1, 11 ng/mL JAK2, 400 ng/mL JAK3, or 200 ng/mL TYK2, 100 nM substrate, and 1 mM ATP. The assay started with loading 2.5 μL of JAK1, JAK2, JAK3, or TYK2 diluted in the kinase reaction buffer to wells, followed by addition of an equal volume of 4× compounds for 15-min incubation at room temperature for pre-treatment. The enzymatic reaction was initiated by addition of 5 μL of a mixture of the substrate and ATP prepared in the kinase reaction buffer. After one hour reaction, 10 μL mixture of EDTA (final 10 mM) and terbium-labeled anti-pSTAT1 (pTyr701) antibody (final 2 nM) (Invitrogen, Cat. No. PV4844) prepared in TR-FRET antibody dilution buffer (Invitrogen, Cat. No. PV3574) was added to stop the enzymatic reaction and produce TR-FRET signals. After 30 minutes of incubation at room temperature, the plate was read in Tecan Infinite F200 Pro with the following settings: Excitation 340 nm (30)/Emission1 495 nm (10)/Emission2 520 nm (25). The TR-FRET values were dimensionless numbers that were calculated as the ratio of the acceptor ([…]) signal to the donor (Terbium) signal. Percent of inhibition was calculated as (100%−percentage of compound-treated/DMSO vehicle-treated). The dose-response curves were generated and the IC50s were calculated by nonlinear sigmoid curve fitting using GraphPad Prism.
(§4) In Table 1, A represents a value no greater than 500 nM, B represents a value greater than 500 nM but no greater than 1 μM, C represents a value greater than 1 μM but no greater than 5 μM, and D represents a value greater than 5 μM. In Table 2, A′ represents a ratio of greater than 8, B′ represents a ratio of no greater than 8 but no less than 4, C′ represents a ratio of no greater than 4 but no less than 2, and D′ represents a ratio of no greater than 2. The selectivity is expressed as a ratio of the IC50 values of a compound against two kinases to be compared.

[2] = biological target: human Janus kinase 2 (JAK2), recombinant catalytic domain (Homo sapiens (Human), UniProt O60674); assay: LanthaScreen TR-FRET enzymatic assay, JAK2; format: biochemical; conditions: for IC50: TR-FRET, 1 mM ATP, GFP-STAT1 substrate, read-out: Inhibitory Activity IC50 JAK2; for Selectivity JAK2/JAK1: ratio of IC50 against JAK2 over IC50 against JAK1
Chain of human Janus kinase 2 (JAK2), recombinant catalytic domain (O60674 808-1132): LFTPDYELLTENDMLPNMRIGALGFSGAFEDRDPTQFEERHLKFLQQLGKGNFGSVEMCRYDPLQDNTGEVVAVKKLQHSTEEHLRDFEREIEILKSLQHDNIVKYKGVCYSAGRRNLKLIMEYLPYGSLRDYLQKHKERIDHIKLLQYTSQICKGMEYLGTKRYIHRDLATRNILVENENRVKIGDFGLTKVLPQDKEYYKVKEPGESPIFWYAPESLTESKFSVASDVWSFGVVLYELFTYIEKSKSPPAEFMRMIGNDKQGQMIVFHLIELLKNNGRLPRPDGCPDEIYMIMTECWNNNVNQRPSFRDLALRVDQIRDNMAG
Method: as §1, §2, §3, §4

[3] = biological target: human Janus kinase 3 (JAK3), recombinant catalytic domain (Homo sapiens (Human), UniProt P52333); assay: LanthaScreen TR-FRET enzymatic assay, JAK3; format: biochemical; conditions: TR-FRET, 1 mM ATP, GFP-STAT1 substrate; read-out: Inhibitory Activity IC50 JAK3
Chain of human Janus kinase 3 (JAK3), recombinant catalytic domain (Homo sapiens (Human), UniProt P52333) (P52333 781-1124): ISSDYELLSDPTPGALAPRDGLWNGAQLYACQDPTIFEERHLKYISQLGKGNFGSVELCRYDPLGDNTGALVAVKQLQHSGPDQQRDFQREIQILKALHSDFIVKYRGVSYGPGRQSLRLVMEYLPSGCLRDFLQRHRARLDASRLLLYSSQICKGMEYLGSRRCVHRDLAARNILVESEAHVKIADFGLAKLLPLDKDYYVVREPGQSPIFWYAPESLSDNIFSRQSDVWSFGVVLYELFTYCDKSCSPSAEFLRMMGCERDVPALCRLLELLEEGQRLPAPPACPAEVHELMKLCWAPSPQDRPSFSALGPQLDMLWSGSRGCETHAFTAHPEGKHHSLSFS
Method: as §1, §2, §3, §4

[4] = test system: human Janus kinase 3 (JAK3), recombinant catalytic domain; assay: LanthaScreen TR-FRET enzymatic assay, JAK3; format: biochemical; conditions: ratio of IC50 against JAK3 over IC50 against JAK1
Method: as §1, §2, §3, §4

[5] = biological target: human tyrosine kinase 2 (TYK2), recombinant catalytic domain (Homo sapiens (Human), UniProt P29597); assay: LanthaScreen TR-FRET enzymatic assay, TYK2; format: biochemical; conditions: TR-FRET, 1 mM ATP, GFP-STAT1 substrate; read-out: Inhibitory Activity IC50 TYK2
Chain of human tyrosine kinase 2 (TYK2), recombinant catalytic domain (Homo sapiens (Human), UniProt P29597) (P29597 833-1187): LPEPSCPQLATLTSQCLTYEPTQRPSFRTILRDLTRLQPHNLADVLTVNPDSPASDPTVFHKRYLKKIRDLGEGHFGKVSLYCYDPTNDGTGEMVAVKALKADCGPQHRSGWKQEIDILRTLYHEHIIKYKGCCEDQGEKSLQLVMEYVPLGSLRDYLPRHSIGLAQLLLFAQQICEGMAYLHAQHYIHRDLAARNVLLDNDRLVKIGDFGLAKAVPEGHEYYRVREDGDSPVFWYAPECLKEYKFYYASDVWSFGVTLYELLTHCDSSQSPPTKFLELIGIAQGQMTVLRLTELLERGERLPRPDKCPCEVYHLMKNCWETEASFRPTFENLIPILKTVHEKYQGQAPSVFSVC
Method: as §1, §2, §3, §4

[6] = test system: human tyrosine kinase 2 (TYK2), recombinant catalytic domain; assay: LanthaScreen TR-FRET enzymatic assay, TYK2; format: biochemical; conditions: ratio of IC50 against TYK2 over IC50 against JAK1
Method: as §1, §2, §3, §4

JAK1 = JAK1 (Homo sapiens (Human), UniProt P23458); assay: Cellular JAK1 assay: IL-6-mediated STAT3 phosphorylation in TF-1 cells; format: cell-based; conditions: IL-6 stimulation, STAT3 phosphorylation at Tyr705 (AlphaLISA), read-out: Inhibitory Activity Against JAK1 IC50
Chain of JAK1 (P23458 whole entry): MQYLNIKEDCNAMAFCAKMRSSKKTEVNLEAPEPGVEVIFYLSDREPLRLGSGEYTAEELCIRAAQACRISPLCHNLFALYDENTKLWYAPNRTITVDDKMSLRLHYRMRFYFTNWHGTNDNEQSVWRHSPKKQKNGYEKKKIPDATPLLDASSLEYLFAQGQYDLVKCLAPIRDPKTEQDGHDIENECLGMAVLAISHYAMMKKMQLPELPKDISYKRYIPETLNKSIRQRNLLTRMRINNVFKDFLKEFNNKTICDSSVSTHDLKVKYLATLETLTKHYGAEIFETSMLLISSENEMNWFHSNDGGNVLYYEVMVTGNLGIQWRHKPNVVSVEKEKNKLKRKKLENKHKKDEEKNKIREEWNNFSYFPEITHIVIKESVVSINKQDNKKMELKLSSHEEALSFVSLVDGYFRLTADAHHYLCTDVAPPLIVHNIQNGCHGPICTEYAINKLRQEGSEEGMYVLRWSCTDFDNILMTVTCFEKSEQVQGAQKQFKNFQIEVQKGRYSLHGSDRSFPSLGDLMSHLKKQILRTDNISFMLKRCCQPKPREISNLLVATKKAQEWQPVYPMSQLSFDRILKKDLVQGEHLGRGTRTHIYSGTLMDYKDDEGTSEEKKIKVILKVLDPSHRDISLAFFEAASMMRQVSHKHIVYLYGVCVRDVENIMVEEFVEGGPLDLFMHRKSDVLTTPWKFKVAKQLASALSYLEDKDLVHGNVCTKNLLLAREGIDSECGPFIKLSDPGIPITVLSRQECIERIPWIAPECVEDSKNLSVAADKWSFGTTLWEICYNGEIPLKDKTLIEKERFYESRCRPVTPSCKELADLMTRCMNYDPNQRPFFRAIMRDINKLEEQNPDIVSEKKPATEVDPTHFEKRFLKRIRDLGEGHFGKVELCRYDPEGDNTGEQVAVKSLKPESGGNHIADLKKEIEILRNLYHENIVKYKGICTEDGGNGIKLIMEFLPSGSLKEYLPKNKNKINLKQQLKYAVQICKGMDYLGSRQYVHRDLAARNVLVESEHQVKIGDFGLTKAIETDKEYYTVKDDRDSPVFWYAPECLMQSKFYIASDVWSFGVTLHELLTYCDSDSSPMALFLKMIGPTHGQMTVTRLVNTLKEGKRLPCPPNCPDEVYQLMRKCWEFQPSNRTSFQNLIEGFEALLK
Method: The cellular potency of a compound on JAK1 or JAK2 inhibition is determined by measuring the cytokine-mediated phosphorylation of STAT proteins in TF-1 cells.
Human cytokines of IL-6 (R&D Systems, Cat. No. 206-IL-010/CF) and GM-CSF (R&D Systems, Cat. No. 215-GM-010/CF) are reconstituted at 10 μg/mL in D-PBS containing 0.1% BSA (Sigma, Cat. No. A8577) and human EPO (R&D Systems, Cat. No. 287-TC-500) at 500 U/mL in D-PBS containing 0.1% BSA. TF-1 cells (ATCC, CRL-2003) were grown in RPMI1640 (ATCC, Cat. No. 30-2001) supplemented with 2 ng/mL of recombinant human GM-CSF, 10% FBS (Gibco, Cat. No. 10437-028), and 100 U/mL penicillin-streptomycin (Gibco, Cat. No. 15140-122). The cells were maintained and propagated between 1×10^5 cells/mL to 7.5×10^5 cells/mL. Aliquots of the cells from early passages were preserved for liquid nitrogen storage. Frozen vials of the cells were thawed at 37° C. water bath. The cells were spun to remove freezing medium. The newly revived frozen cells were adapted in culture for 5-7 days before used for compound testing. The cells used in for compound testing were less than 20 subculture passages or 3 months in culture.
To test compounds, the TF-1 cells were harvested at a density of 3 to 7×10^5 cells/mL by centrifugation. After removing the culture medium, the resulting cell pellet was suspended and washed once by centrifugation with HBSS buffer (Gibco, Cat. No. 14025-092) containing 0.1% BSA. The cell pellet was resuspended in HBSS buffer at 7.5×10^6 cells/mL. Four micro-liters of the cells (3×10^4 cells in total) were added to each well of a white 384-well plate (Packard, Cat. No. 6005214).
The compounds were first diluted in dimethylsulfoxide (DMSO) (Sigma, Cat. No. D2650) to generate 9 3-fold diluted dosing concentrations in a 96-well polypropylene plate (Corning, Cat. No. 3365), followed by addition of HBSS buffer for another 125-fold dilution. To the cells, 2 μL of the diluted compounds were added and mixed by tapping the plate several times. The cells were incubated for 2 hrs of treatment. DMSO was used as a control and similarly diluted along and added to the cells.
To assay JAK1 inhibition, 2 μL of IL-6 diluted at 400 ng/mL (4×) in HBSS containing 0.1% BSA was added to the treated cells. The cells were then incubated for 30 min of cytokine treatment and lysed at the end by addition of 2 μL of 5×AlphaLISA SureFire Ultra lysis buffer from Perkin Elmer. The plate was agitated on a plate shaker for 10 min at room temperature. The cellular JAK1 activity was determined by measuring STAT3 phosphorylation at Tyr705 in lysates using the AlphaLISA SureFire Ultra kit (Perkin Elmer, Cat. No. ALSU-PST3-A500). A volume of 5 μL of acceptor mix and donor mix was added sequentially to lysates following the product protocol. The assay signals were recorded on EnVision plate reader (Perkin Elmer) with AlphaScreen optics setting.
The results are summarized in Table 3, where A represents a value no greater than 500 nM, B represents a value greater than 500 nM but no greater than 1 μM, C represents a value greater than 1 μM but no greater than 5 μM, and D represents a value greater than 5 μM.

Chain of human Janus kinase 1 (JAK1), recombinant catalytic domain (P23458 866-1154): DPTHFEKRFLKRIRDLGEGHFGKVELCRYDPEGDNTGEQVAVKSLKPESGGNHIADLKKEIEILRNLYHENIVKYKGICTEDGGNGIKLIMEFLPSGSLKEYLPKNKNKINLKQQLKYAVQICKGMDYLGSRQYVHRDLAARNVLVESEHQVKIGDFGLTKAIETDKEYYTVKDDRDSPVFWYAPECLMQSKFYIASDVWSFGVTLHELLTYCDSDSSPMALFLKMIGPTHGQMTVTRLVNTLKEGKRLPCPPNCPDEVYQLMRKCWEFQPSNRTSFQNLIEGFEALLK

Row | SMILES | IC50 [1] | IC50 [2] | IC50 [3] | IC50 [5] | IC50 (JAK1) | Selectivity JAK2/JAK1 [2] | Selectivity JAK3/JAK1 [4] | Selectivity TYK2/JAK1 [6]
1 | O=C(Nc1cn2c(-c3ccc(CN4CCS(=O)(=O)CC4)cc3)cccc2n1)C1CC1 [Compound 1, N-(5-(4-((1,1-Dioxo-1-thiomorpholino)methyl)phenyl)imidazo[1,2-a]pyridin-2-yl) cyclopropanecarboxamide] | ≤ 0.5 µM | 1 to 5 µM | > 5 µM | 1 to 5 µM | ≤ 0.5 µM | A′ (A′ represents a ratio of greater than 8) | A′ (A′ represents a ratio of greater than 8) | A′ (A′ represents a ratio of greater than 8)
2 | CC1(C)CN(Cc2ccc(-c3cccc4nc(NC(=O)C5CC5)cn34)cc2)C1 [Compound 25] | > 5 µM | > 5 µM | > 5 µM | > 5 µM |  | A′ (A′ represents a ratio of greater than 8) | A′ (A′ represents a ratio of greater than 8) | A′ (A′ represents a ratio of greater than 8)
3 | O=C(Nc1cn2c(-c3cccc(CN4CCS(=O)(=O)CC4)c3)cccc2n1)C1CC1 [Compound 29] | > 5 µM | > 5 µM | > 5 µM | > 5 µM |  | C′ (C′ represents a ratio of no greater than 4 but no less than 2) | A′ (A′ represents a ratio of greater than 8) | C′ (C′ represents a ratio of no greater than 4 but no less than 2)
4 | Cc1cc(-c2ccc(CN3CCS(=O)(=O)CC3)cc2)n2cc(NC(=O)C3CC3)nc2c1 [Compound 33] | > 5 µM | > 5 µM | > 5 µM | > 5 µM |  | A′ (A′ represents a ratio of greater than 8) | A′ (A′ represents a ratio of greater than 8) | A′ (A′ represents a ratio of greater than 8)

More lines, main results first:

Row | IC50 [1] | IC50 [2] | IC50 [3] | IC50 [5] | IC50 (JAK1) | SMILES | Selectivity JAK2/JAK1 [2] | Selectivity JAK3/JAK1 [4] | Selectivity TYK2/JAK1 [6]
5 | ≤ 0.5 µM | 1 to 5 µM | > 5 µM | 1 to 5 µM | ≤ 0.5 µM | CC1(C)CN(C(=O)c2ccc(-c3cccc4nc(NC(=O)C5CC5)cn34)cc2)C1 [Compound 17] | A′ (A′ represents a ratio of greater than 8) | A′ (A′ represents a ratio of greater than 8) | A′ (A′ represents a ratio of greater than 8)
6 | ≤ 0.5 µM | 1 to 5 µM | > 5 µM | 1 to 5 µM | ≤ 0.5 µM | CC1(C)CN(C(=O)c2ccc(-c3cccc4nc(NC(=O)C5CC5)cn34)cc2F)C1 [Compound 24] | A′ (A′ represents a ratio of greater than 8) | A′ (A′ represents a ratio of greater than 8) | A′ (A′ represents a ratio of greater than 8)
7 | ≤ 0.5 µM | > 5 µM | > 5 µM | > 5 µM | ≤ 0.5 µM | N#CCc1ccc(-c2cccc3nc(NC(=O)C4CC4)cn23)cc1F [Compound 26] | A′ (A′ represents a ratio of greater than 8) | A′ (A′ represents a ratio of greater than 8) | A′ (A′ represents a ratio of greater than 8)
8 | 0.5 to 1 µM | > 5 µM | > 5 µM | > 5 µM |  | CC(C#N)c1ccc(-c2cccc3nc(NC(=O)C4CC4)cn23)cc1 (stereo not shown) [Compound 27] | A′ (A′ represents a ratio of greater than 8) | A′ (A′ represents a ratio of greater than 8) | A′ (A′ represents a ratio of greater than 8)
9 | ≤ 0.5 µM | > 5 µM | > 5 µM | > 5 µM |  | N#CCc1ccccc1NCc1ccc(-c2cccc3nc(NC(=O)C4CC4)cn23)cc1 [Compound 32] | A′ (A′ represents a ratio of greater than 8) | A′ (A′ represents a ratio of greater than 8) | A′ (A′ represents a ratio of greater than 8)
